# Test results as given in US7491705B2, “Alpha-ketoamide derivative, and production method and use thereof” (Senju Pharmaceutical Co., Ltd., priority 2003, dated 2009).
# Experiments:
# μ-calpain = test system: T1, μ-calpain; assay type: biochemical; conditions: μ-calpain derived from human red blood cells; 30° C., 60 minutes; read-out: Enzyme inhibitory activity μ-calpain (IC50)
# T1 construct: μ-calpain (derived from human red blood cells; available from Cosmo Bio Co. Ltd.); purchased Cosmo Bio Co. Ltd; host or cells: purified from human red blood cells
# Protocol: (1) Measurement of Inhibitory Activity Against μ-Calpain and m-Calpain
# The inhibitory activity against μ-calpain and m-calpain was assayed according to the method described in Anal. Biochem. 1993, vol. 208, p. 387-392. That is, to 2.5 μL of a DMSO solution containing a varying concentration of the test sample in a 96-well plate was added 200 μL of a reaction solution containing 0.5 mg/mL casein, 50 mM Tris-HCl buffer (pH 7.4), 20 mM dithiothreitol and 1.0 nmol μ-calpain (derived from human red blood cells; available from Cosmo Bio Co. Ltd.) or m-calpain (derived from porcine kidney; available from Cosmo Bio Co. Ltd.). After 20 mM aqueous calcium chloride (50 μL) was added thereto, the mixture was incubated at 30° C. for 60 minutes. Then, 100 μL of the reaction solution was transferred to another 96-well plate, and purified water (50 μL) and 50% aqueous solution (100 μL) of Protein Assay Dye Reagent (available from Bio-Rad Laboratories, Inc.; catalogue No. 500-600) were added thereto. The reaction mixture was allowed to stand at room temperature for 15 minutes, and its absorbance was measured at 595 nm.
# The absorbance of a reaction mixture prepared in the same manner as mentioned above, except that a DMSO solution contained no sample, was used as a control value, and that of a reaction mixture prepared in the same manner as mentioned above, except that 1 mM aqueous EDTA solution (50 μL) was used in place of 20 mM aqueous calcium chloride, was used as a blank value. […] Inhibition rate (%)={1−(measured value minus blank value)/(control value minus blank value)}×100
# [1] = Solubility in 10 mM phosphate buffer (pH 7.0); assay type: physicochemical
# Protocol: Solubility of the compounds of the present invention in 10 mM phosphate buffer (pH 7.0) was measured.
# [2] = Partition coefficient using IAM column; assay type: physicochemical; conditions: IAM Fast Screening Mini-Column; Dulbecco's phosphate buffer (pH 7.4)
# Protocol: Analysis by HPLC system was carried out under the conditions given below, and retention time of each substance was measured. • Column: IAM Fast Screening Mini-Column (Regis Technologies, Inc.) • Mobile phase: Dulbecco's phosphate buffer (pH 7.4) • Detection wavelength: 250 nm • Column temperature: room temperature • Injection amount: 5.0 to 20 μL • Flow rate: 0.5 mL/min • Sample solution: 5 mg of sample was dissolved in 100 μL of acetonitrile, and a mobile phase was added to make 1 mL of a sample solution.
# The measured value was inserted into the following formula, and the partition coefficient (K′ IAM) was calculated. k′IAM=(tR−t0)/t0 t0: retention time of the peak derived from acetonitrile tR: retention time of the peak of the sample
# [3] = Transportation rate into blood after oral administration; assay type: in vivo, Macaca fascicularis (crab-eating monkey); conditions: cynomolgus monkey, 10 mg/kg, Macaca fascicularis, plasma; for AUC(0-t): read-out: AUC 0→4 hr
# Protocol: The compound of the present invention was administered orally to Macaca fascicularis (crab-eating monkey) at a dose of 10 mg/kg. The blood was collected with the lapse of time, and the concentration of each compound in the plasma was measured.
# in vitro = conditions: human, Caco-2
# Protocol: As a culture medium for the incubation, Dulbecco's modified Eagle's minimum essential medium (GIBCO BRL) supplemented with 10% fetal calf serum (GIBCO BRL), antibiotic-antimycotic mixture, liquid (GIBCO BRL), non-essential amino acid solution (GIBCO BRL) and 2 mmol/L L-glutamine (GIBCO BRL) was used. […] Propranolol was used as a positive control, and ^14C-mannitol was used as a negative control. LC-MS/MS was used for quantitative analysis of samples, and a liquid scintillation counter was used for quantitative analysis of ^14C-mannitol.
# Papp: apparent permeation coefficient (cm/sec)
# δQ/δt: permeation velocity (pmol/min)
# A: area of monolayer cell=0.33 cm^2
# C0: initial concentration at apical membrane side (pmol/mL)
Compound,IC50 (μ-calpain) [µM],other results
"COCCOCCOC(=O)N[C@@H](CC(C)C)C(=O)NC(Cc1ccccc1)C(=O)C(N)=O (mixture of isomers) [Compound 23, ((1S)-1-((((1RS)-3-amino-1-benzyl-2,3-dioxopropyl)amino)carbonyl)-3-methylbutyl)carbamic acid 5-methoxy-3-oxapentyl ester]",0.19,
"CCNC(=O)C(=O)[C@H](Cc1ccccc1)NC(=O)[C@H](CC(C)C)NC(=O)OCCOC [Compound 1, ((1S)-1-((((1S)-1-Benzyl-2,3-dioxo-3-(ethylamino)propyl)amino)carbonyl)-3-methylbutyl)carbamic acid 2-methoxyethyl ester]",0.17,
"CCNC(=O)C(=O)[C@H](Cc1ccccc1)NC(=O)[C@H](CC(C)C)NC(=O)O[C@H]1CCOC1 [Compound 2, ((1S)-1-((((1S)-1-Benzyl-2,3-dioxo-3-(ethylamino)propyl)amino)carbonyl)-3-methylbutyl)carbamic acid (3S)-tetrahydrofuran-3-yl ester]",0.15,
"CCNC(=O)C(=O)[C@H](Cc1ccccc1)NC(=O)[C@H](CC(C)C)NC(=O)OC1CCOCC1 [Compound 3, ((1S)-1-((((1S)-1-Benzyl-2,3-dioxo-3-(ethylamino)propyl)amino)carbonyl)-3-methylbutyl)carbamic acid tetrahydro-4H-pyran-4-yl ester]",0.25,
"CC(C)C[C@H](NC(=O)O[C@H]1CCOC1)C(=O)N[C@@H](Cc1ccccc1)C(=O)C(=O)NC1CC1 [Compound 5, ((1S)-1-((((1S)-1-Benzyl-3-(cyclopropylamino)-2,3-dioxo-propyl)amino)carbonyl)-3-methylbutyl)carbamic acid (3S)-tetrahydrofuran-3-yl ester]",0.09,
"CC(C)C[C@H](NC(=O)OC1CCOCC1)C(=O)N[C@@H](Cc1ccccc1)C(=O)C(=O)NC1CC1 [Compound 6, ((1S)-1-((((1S)-1-Benzyl-3-cyclopropylamino-2,3-dioxo-propyl)amino)carbonyl)-3-methylbutyl)carbamic acid tetrahydro-4H-pyran-4-yl ester]",0.12,
CCCNC(=O)C(=O)[C@H](Cc1ccccc1)NC(=O)[C@H](CC(C)C)NC(=O)OCCOC [Compound 7],0.1,
"COCCOC(=O)N[C@@H](CC(C)C)C(=O)N[C@@H](Cc1ccccc1)C(=O)C(=O)NC1CCC1 [Compound 8, ((1S)-1-((((1S)-1-Benzyl-2,3-dioxo-3-(cyclobutylamino)propyl)amino)carbonyl)-3-methylbutyl)carbamic acid 2-methoxyethyl ester]",0.17,
"CCCCNC(=O)C(=O)[C@H](Cc1ccccc1)NC(=O)[C@H](CC(C)C)NC(=O)OCCOC [Compound 9, ((1S)-1-((((1S)-1-Benzyl-3-butylamino-2,3-dioxo-propyl)amino)carbonyl)-3-methylbutyl)carbamic acid 2-methoxyethyl ester]",0.1,
"COCCOC(=O)N[C@@H](CC(C)C)C(=O)N[C@@H](Cc1ccccc1)C(=O)C(=O)NCC(F)(F)F [Compound 10, ((1S)-1-((((1S)-1-Benzyl-2,3-dioxo-3-(2,2,2-trifluoroethylamino)propyl)amino)carbonyl)-3-methylbutyl)carbamic acid 2-methoxyethyl ester]",0.45,
"COCCOC(=O)N[C@@H](CC(C)C)C(=O)N[C@@H](Cc1ccccc1)C(=O)C(=O)NC1Cc2ccccc2C1 [Compound 11, ((1S)-1-((((1S)-1-Benzyl-2,3-dioxo-3-(2-indanylamino)propyl)amino)carbonyl)-3-methylbutyl)carbamic acid 2-methoxyethyl ester]",0.17,
"COCCNC(=O)C(=O)[C@H](Cc1ccccc1)NC(=O)[C@H](CC(C)C)NC(=O)OCCOC [Compound 12, ((1S)-1-((((1S)-1-Benzyl-2,3-dioxo-3-(2-methoxyethylamino)propyl)amino)carbonyl)-3-methylbutyl)carbamic acid 2-methoxyethyl ester]",0.18,
"CCNC(=O)C(=O)[C@H](CCc1ccccc1)NC(=O)[C@H](CC(C)C)NC(=O)OCCOC [Compound 13, ((1S)-1-((((1S)-2,3-Dioxo-3-ethylamino-1-(phenylethyl)propyl)amino)carbonyl)-3-methylbutyl)carbamic acid 2-methoxyethyl ester]",0.3,
"CCNC(=O)C(=O)[C@H](CCc1ccccc1)NC(=O)[C@H](CC(C)C)NC(=O)O[C@H]1CCOC1 [Compound 14, ((1S)-1-((((1S)-2,3-Dioxo-3-ethylamino-1-(phenylethyl)propyl)amino)carbonyl)-3-methylbutyl)carbamic acid (3S)-tetrahydrofuran-3-yl ester]",0.16,
"COCCOC(=O)N[C@@H](CC(C)C)C(=O)N[C@@H](CCc1ccccc1)C(=O)C(=O)NC1CC1 [Compound 15, ((1S)-1-((((1S)-2,3-Dioxo-3-cyclopropylamino-1-(phenylethyl)propyl)amino)carbonyl)-3-methylbutyl)carbamic acid 2-methoxyethyl ester]",0.18,
"CC(C)C[C@H](NC(=O)O[C@H]1CCOC1)C(=O)N[C@@H](CCc1ccccc1)C(=O)C(=O)NC1CC1 [Compound 16, ((1S)-1-((((1S)-2,3-Dioxo-3-cyclopropylamino-1-(phenylethyl)propyl)amino)carbonyl)-3-methylbutyl)carbamic acid (3S)-tetrahydro-furan-3-yl ester]",0.14,
"COCCOCCOCCOC(=O)N[C@@H](CC(C)C)C(=O)N[C@@H](Cc1ccccc1)C(=O)C(=O)NC1CC1 [Compound 18, ((1S)-1-((((1S)-1-Benzyl-2,3-dioxo-3-(cyclopropylamino)propyl)amino)carbonyl)-3-methylbutyl)carbamic acid 8-methoxy-3,6-dioxaoctyl ester]",,Solubility [1]: 5400 µg/mL; IAM (Log k′IAM) [2]: 1.38; Cmax [3]: 660 nM; AUC(0-t) [3]: 1.6 µM·h
"COCCOCCOCCOCCOC(=O)N[C@@H](CC(C)C)C(=O)N[C@@H](Cc1ccccc1)C(=O)C(=O)NC1CC1 [Compound 19, ((1S)-1-((((1S)-1-Benzyl-2,3-dioxo-3-(cyclopropylamino)propyl)amino)carbonyl)-3-methylbutyl)carbamic acid 11-methoxy-3,6,9-trioxaundecanyl ester]",,Solubility [1]: 8300 µg/mL; IAM (Log k′IAM) [2]: 1.44; Cmax [3]: 900 nM; AUC(0-t) [3]: 1.6 µM·h
"COCCOCCOCCOCCOCCOC(=O)N[C@@H](CC(C)C)C(=O)N[C@@H](Cc1ccccc1)C(=O)C(=O)NC1CC1 [Compound 20, ((1S)-1-((((1S)-1-Benzyl-2,3-dioxo-3-(cyclopropylamino)propyl)amino)carbonyl)-3-methylbutyl)carbamic acid 14-methoxy-3,6,9,12-tetraoxa-tetradecanyl ester]",,Solubility [1]: 16300 µg/mL
"COCCOC(=O)N[C@@H](CC(C)C)C(=O)N[C@@H](CC(C)C)C(=O)C(=O)NCCOc1ccccc1 [Compound 21, ((1S)-1-((((1S)-2,3-Dioxo-1-(2-methylpropyl)-3-(2-phenoxyethyl)aminopropyl)amino)carbonyl)-3-methylbutyl)carbamic acid 2-methoxyethyl ester]",0.08,
"COCCOCCOC(=O)N[C@@H](CC(C)C)C(=O)N[C@@H](CC(C)C)C(=O)C(=O)NCCOc1ccccc1 [Compound 22, ((1S)-1-((((1S)-2,3-Dioxo-1-(2-methylpropyl)-3-(2-phenoxyethyl)aminopropyl)amino)carbonyl)-3-methylbutyl)carbamic acid 5-methoxy-3-oxapentyl ester]",0.09,
"CC(C)C[C@H](NC(=O)OCCc1ccccn1)C(=O)N[C@@H](Cc1ccccc1)C(=O)C(=O)NC1CC1 [Compound 24, ((1S)-1-((((1S)-1-benzyl-3-(cyclopropylamino)-2,3-dioxo-propyl)amino)carbonyl)-3-methylbutyl)carbamic acid 2-(pyridin-2-yl)ethyl ester]",0.029,
"CC(C)NCC(O)COc1cccc2ccccc12 (stereo not drawn) [Propranolol, reference compound]",,Papp A→B at 10 μm (in vitro): 8.5 ×10⁻⁶ cm/s; IAM (Log k′IAM) [2]: 1.95
